Test results reported in publication PMC11383987 (bioRxiv, 2024).
Substitutions are numbered along the chain they refer to. “And” between values parts separate entries of the source, which are not always exact repeats. Equal entries are not always repeated.

Legend:
Format in all cases: biochemical
[1] = target: T1, Arabidopsis thaliana PIN8 (Arabidopsis thaliana, UniProt Q9LFP6); test: SSM electrophysiology peak current response, wild-type PIN8 proteoliposomes; conditions: for EC50: EC50 of peak current response; for EC50 / Imax: WT PIN8, Michaelis-Menten fit; for peak width of SSM current response at various lipid-to-protein ratios (LPR): LPR10 vs LPR50, variation is consistent with transport
T1 sequence (Q9LFP6 1-367): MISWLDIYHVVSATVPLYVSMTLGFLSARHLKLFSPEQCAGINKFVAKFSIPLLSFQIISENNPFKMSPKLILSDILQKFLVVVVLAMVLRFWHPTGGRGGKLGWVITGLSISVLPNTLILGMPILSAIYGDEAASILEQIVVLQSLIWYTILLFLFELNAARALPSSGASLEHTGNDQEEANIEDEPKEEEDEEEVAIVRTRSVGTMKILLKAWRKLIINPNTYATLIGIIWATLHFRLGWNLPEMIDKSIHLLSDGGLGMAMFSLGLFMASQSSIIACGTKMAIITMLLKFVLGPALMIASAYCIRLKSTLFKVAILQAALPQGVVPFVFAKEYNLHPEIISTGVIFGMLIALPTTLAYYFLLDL

PIN8 S146A = target: T2, PIN8 S146A (Arabidopsis thaliana, UniProt Q9LFP6, S146A); test: SSM electrophysiology peak current response, PIN8 S146A proteoliposomes; conditions: for Imax: PIN8 S146A
T2 sequence (Q9LFP6 1-367 S146A): T1 sequence (Q9LFP6 1-367) with S146A

PIN8 Y150A = target: T3, PIN8 Y150A (Arabidopsis thaliana, UniProt Q9LFP6, Y150A); test: SSM electrophysiology peak current response, PIN8 Y150A proteoliposomes; conditions: for Imax: PIN8 Y150A
T3 sequence (Q9LFP6 1-367 Y150A): T1 sequence (Q9LFP6 1-367) with Y150A

PIN8 I51Y = target: T4, PIN8 I51Y (Arabidopsis thaliana, UniProt Q9LFP6, I51Y); test: SSM electrophysiology peak current response, PIN8 I51Y proteoliposomes; conditions: for Imax: PIN8 I51Y
T4 sequence (Q9LFP6 1-367 I51Y): T1 sequence (Q9LFP6 1-367) with I51Y

PIN8 S266A = target: T5, PIN8 S266A (Arabidopsis thaliana, UniProt Q9LFP6, S266A); test: SSM electrophysiology peak current response, PIN8 S266A proteoliposomes; conditions: for Imax: PIN8 S266A
T5 sequence (Q9LFP6 1-367 S266A): T1 sequence (Q9LFP6 1-367) with S266A

PIN8 N223A = target: T6, PIN8 N223A (Arabidopsis thaliana, UniProt Q9LFP6, N223A); test: SSM electrophysiology peak current response, PIN8 N223A proteoliposomes; conditions: for effect of N223A mutation on affinity/binding: PIN8 N223A vs WT
T6 sequence (Q9LFP6 1-367 N223A): T1 sequence (Q9LFP6 1-367) with N223A

PIN8 S55A = target: T7, PIN8 S55A (Arabidopsis thaliana, UniProt Q9LFP6, S55A); test: SSM electrophysiology peak current response, PIN8 S55A proteoliposomes; conditions: for Imax: PIN8 S55A
T7 sequence (Q9LFP6 1-367 S55A): T1 sequence (Q9LFP6 1-367) with S55A

Row | Imax (PIN8 N223A; PIN8 N223A) [nA] | effect of S55A mutation on affinity (PIN8 S55A; PIN8 S55A vs WT) | SMILES | EC50 [1] | peak width of SSM current response at various lipid-to-protein ratios (LPR) [1] | Imax [1] [nA] | EC50 (PIN8 S146A) [µM] | Imax (PIN8 S146A) [nA] | EC50 (PIN8 Y150A) [µM] | Imax (PIN8 Y150A) [nA] | EC50 (PIN8 I51Y) [µM] | Imax (PIN8 I51Y) [nA] | EC50 (PIN8 S266A) [µM] | Imax (PIN8 S266A) [nA] | effect of N223A mutation on affinity/binding (PIN8 N223A) | EC50 (PIN8 S55A) [µM] | Imax (PIN8 S55A) [nA]
1 |  |  | O=C(O)COc1ccc(Cl)cc1Cl [2,4-D, 2,4-dichlorophenoxyacetic acid] | 179 ± 10 µM | vary with LPR | 17 ± 2 | 164 ± 67 | 8 ± 0.9 | 684 ± 256 | 5 ± 1 | 641 ± 77 | 3 ± 0.8 | 774 ± 70 | 12 ± 0.7 | completely abolishes binding | 95 ± 36 | 6 ± 0.6
2 |  |  | O=C(O)COc1ccc(Cl)cc1 [4-CPA, 4-chlorophenoxyacetic acid] | 800 ± 200 µM | vary with LPR | 12 ± 2 | 369 ± 27 | 8 ± 2 | 2620 ± 263 | 5 ± 0.4 | 1040 ± 252 | 3 ± 0.8 | 2100 ± 290 | 7 ± 2 | completely abolishes binding | 328 ± 15 | 11 ± 1
3 | 2 ± 0.8 | remains unchanged | O=C(O)Cc1c[nH]c2ccccc12 [IAA, indole-3-acetic acid] | 250 µM and 254 µM | vary with LPR | 18 ± 3 | 498 ± 191 | 8 ± 2 | 1210 ± 298 | 4 ± 0.3 | 547 ± 171 | 2 ± 0.2 | 578 ± 183 | 4 ± 0.6 | reduces affinity for IAA only slightly | 213 ± 58 | 6 ± 1
